What all share (assay type): ADME, organism-based
Data set [1] can be described thus: Plasma concentration in mouse at 100 mg/kg, po after 1 hr. Details: dose 100 mg/kg, route oral.
The nature of data set [2]: Plasma concentration in mouse at 100 mg/kg, po after 4 hrs. Also on record: dose 100 mg/kg, route oral.
A short description of data set [3]: Clearance in rat at 5 mg/kg. Details: dose 5 mg/kg. As to conditions: in vivo.
Data set [4] in a line: Volume of distribution in rat at 5 mg/kg. Also on record: dose 5 mg/kg. As to conditions: in vivo.
Data set [5] is described as follows: Half life in rat at 5 mg/kg, iv. Details: dose 5 mg/kg, route intravenous. The settings on record: in vivo.
The nature of data set [6]: Half life in rat at 5 mg/kg, po. Also on record: dose 5 mg/kg, route oral. The settings on record: in vivo.
Data set [7] is described as follows: Oral bioavailability in rat at 5 mg/kg. The settings on record: in vivo.
The nature of data set [8]: Cmax in rat at 5 mg/kg, iv. Details: dose 5 mg/kg, route intravenous. As to conditions: in vivo.
Data set [9] is described as follows: Cmax in rat at 5 mg/kg, po. Details: dose 5 mg/kg, route oral. As to conditions: in vivo.
In data set [10] the test system is Rattus norvegicus. The experiment in a line: Dose normalised AUC in rat at 5 mg/kg, iv. Also on record: dose 5 mg/kg, route intravenous. As to conditions: in vivo.
Data set [11] has as its system Rattus norvegicus. Briefly: Dose normalised AUC in rat at 5 mg/kg, po. The settings on record: in vivo. Details: dose 5 mg/kg, route oral.
Data set [12] is described as follows: Clearance in rat at […]. Also on record: dose 2.5 mg/kg. As to conditions: in vivo.
A short description of data set [13]: Volume of distribution in rat at […]. Details: dose 2.5 mg/kg. The settings on record: in vivo.
Data set [14] in a line: Half life in rat at […], iv. Also on record: dose 2.5 mg/kg, route intravenous. As to conditions: in vivo.
Data set [15] in a line: Half life in rat at […], po. Also on record: dose 2.5 mg/kg, route oral. As to conditions: in vivo.
The nature of data set [16]: Oral bioavailability in rat at […]. As to conditions: in vivo.
Data set [17] in a line: Cmax in rat at […], iv. Also on record: dose 2.5 mg/kg, route intravenous. As to conditions: in vivo.
The nature of data set [18]: Cmax in rat at […], po. Also on record: dose 2.5 mg/kg, route oral. As to conditions: in vivo.
Data set [19] concerns Rattus norvegicus. The experiment in a line: Dose normalised AUC in rat at […], iv. Details: dose 2.5 mg/kg, route intravenous. As to conditions: in vivo.
The subject of data set [20] is Rattus norvegicus. The experiment in a line: Dose normalised AUC in rat at […], po. As to conditions: in vivo. Also on record: dose 2.5 mg/kg, route oral.

What is called clearance is the volume of plasma or blood freed of the substance per unit of time. Lower therefore signals inefficient removal. A word on the Vd: it is the apparent volume that relates the amount in the body to the concentration in plasma or blood. Low readings indicate little distribution into tissue, high ones wide distribution into tissue. As a reminder, the half-life is the time needed for the level to fall by half in the phase considered. As usually defined, the bioavailability is the share of a dose that reaches the circulation, judged against a reference dose that is usually intravenous. Low readings indicate poor availability, high ones good availability. As a reminder, the Cmax is the maximum level reached in the sampled fluid or tissue. Consider `O=c1[nH]c(CN2CC[C@@H](O)C2)nc2c1oc1ccc(Br)cc12`, for which the concentration at 1 h in data set [1] was 93 µM. The compound further came in with a concentration at 4 h in [2] of 35 µM. Besides, the clearance in [3] is 13.2 mL/min/kg. Further, the Vd in data set [4] amounted to 2.3 L/kg. Besides, the half-life is 2.7 h in [5] and 4.7 h in data set [6]. For the same compound, the bioavailability in [7] is 79%. In addition, the maximum concentration (Cmax) was determined as 7.6 µM in [8] and 3.1 µM in [9]. Besides, the results for the AUC/dose in data set [10] and in data set [11] were 3.8 µM·kg·h/mg and 2.9 µM·kg·h/mg, respectively.
As to `N[C@@H]1CCN(Cc2nc3c(oc4ccc(Br)cc43)c(=O)[nH]2)C1`, in data set [1], the concentration at 1 h worked out at 6 µM. Further, the concentration at 4 h in data set [2] turned out to be 5 µM. The same compound had a clearance in data set [3] of 56.2 mL/min/kg. Further, in data set [4], the Vd worked out at 6.2 L/kg. For the same compound, the half-life in data set [5] is 1.4 h; in data set [6] it was 1.6 h. The bioavailability in data set [7] came to 13%. Further, the Cmax in [8] came to 1.8 µM; in data set [9] it was 0.1 µM. The AUC/dose was determined as 0.8 µM·kg·h/mg in data set [10] and 0.1 µM·kg·h/mg in [11].
Regarding `O=c1[nH]c(CN2CCC2)nc2c1oc1ccc(Br)cc12`, in [1], the concentration at 1 h is 13 µM. In addition, the concentration at 4 h in data set [2] came out at 5 µM. In addition, the clearance in data set [12] is 30.6 mL/min/kg. The Vd in data set [13] stood at 3.8 L/kg. The half-life in [14] and in data set [15] was 1 h throughout. In [16], this compound yielded a bioavailability of 77%. The Cmax was 1.8 µM in data set [17] and 0.8 µM in data set [18]. Besides, the results for the AUC/dose in data set [19] and in [20] were 1.7 µM·kg·h/mg and 1.3 µM·kg·h/mg, respectively.
With `CN1C[C@@H]2C[C@H]1CN2Cc1nc2c(oc3ccc(Br)cc32)c(=O)[nH]1`, in data set [1], the concentration at 1 h came to 11 µM. This compound returned a concentration at 4 h in data set [2] of 7 µM. The clearance in [3] is 34.1 mL/min/kg. The compound also yielded a distribution volume (Vd) in data set [4] of 7.1 L/kg. Further, the half-life in data set [5] and in data set [6] was 2.6 h in each case. The bioavailability in data set [7] is 86%. Besides, the figures for the Cmax in data set [8] and in data set [9] were 1.5 µM and 0.4 µM, respectively. Further, the AUC/dose stood at 1.2 µM·kg·h/mg in data set [10] and 0.9 µM·kg·h/mg in [11].
Regarding `O=c1[nH]c(CN2CC(O)C2)nc2c1oc1ccc(Br)cc12`, the concentration at 1 h in data set [1] is 78 µM. Besides, the concentration at 4 h in data set [2] amounted to 22 µM. This compound also gave a clearance in data set [12] of 13.5 mL/min/kg. This compound also registered a Vd in data set [13] of 2.4 L/kg. The figures for the half-life in data set [14] and in data set [15] were 8.4 h and 3.7 h, respectively. This compound displayed a bioavailability in data set [16] of 56%. The Cmax is 3.5 µM in [17] and 1.2 µM in data set [18]. Further, the AUC/dose in data set [19] was found to be 2.6 µM·kg·h/mg; in [20], 1.5 µM·kg·h/mg.

The record behind these values is ChEMBL document CHEMBL2034948, “The design, synthesis, and biological evaluation of PIM kinase inhibitors” (Bioorg Med Chem Lett, 2012).
